Converted amounts (≈) assume the structure as drawn. Like-named read-outs stand apart in the source and are kept apart here.

Results on 18 compounds are retold here after patent publication US20260130885A1, “ANTIMICROBIAL COMPOSITIONS, PHARMACEUTICAL COMPOSITIONS AND USE THEREOF” (priority 2022, published 2026).

What all share (type): cell-based, Staphylococcus aureus
Assay [1] has as its system MRSA ATCC33591. Nature of the assay: Antibacterial activity assay (MIC, broth microdilution). To be noted: for MIC: Staphylococcus aureus. (Dilution methods test growth across graded concentrations, often in twofold steps.)
For assay [2], the system named is S. aureus NCTC8325. The assay is described as above. To be noted: for MIC: Staphylococcus aureus.
In assay [3] the test system is VRSA SJC1200. The description is as above. The following applies: for MIC: Staphylococcus aureus, VRSA.
Assay [4] relates to S. aureus ATCC29213. Described as above. The following applies: for MIC: Staphylococcus aureus.
Assay [5] deals with MRSA ATCC33592. Described as above. The following applies: for MIC: Staphylococcus aureus.
In assay [6] the test system is MRSA SCCmec VT. Described as above. The following applies: for MIC: Staphylococcus aureus, MRSA.
The subject of assay [7] is MRSA ATCC43300. Described as above. The following applies: for MIC: Staphylococcus aureus.
Assay [8] relates to S. aureus DAP-NS. The assay is described as above. To be noted: for MIC: Staphylococcus aureus.
Assay [9] relates to MRSA ATCC49476. The description is as above. The following applies: for MIC: Staphylococcus aureus.
For assay [10], the system named is MRSA USA300. In words: Antibacterial activity assay (MIC by broth microdilution, MBC by subculture). The following applies: for synergy of the fatty acid with SC5005 (in words): summary of Tables 1 and 2; for bactericidal combination effect of the fatty acid with SC5005 (in words): MBC, Table 2; for effect of the fatty acid on the MIC of SC5005 (in words): summary of Table 1. As for the experimental part:
The antimicrobial activity was based on MIC and MBC; MIC is the minimum inhibitory concentration and MBC is the minimum bactericidal concentration. The MIC of individual test agents against MRSA USA300 strains was determined using the broth microdilution method according to CLSI guidelines. Briefly, overnight bacterial cultures in LB medium were diluted 1:50 in fresh LB medium and incubated at 37° C. until reaching an OD600 of 0.5 to 0.6. Bacterial suspensions were diluted to a final concentration of 5×10^5 cfu/mL in fresh CAMHB and then exposed to each test agent at increasing doses in triplicate in 96-well plates for 24 hours at 37° C. The MIC of each agent was defined as the lowest concentration without visible bacterial growth. […] The lowest broth dilution that had no viable bacteria was considered the MBC.
Then, the combination effect was measured by calculating their corresponding fractional inhibitory concentration index (FICI) with the equation ΣFIC (FICi)=FICA+FICB=(CombA/MICA)+(CombB/MICB), where MICA and MICB are the MICs of drugs A and B alone, respectively, and CombA and CombB are the concentrations of drugs A and B in combination, respectively. […] was defined as an FICI≤0.5, no interaction was defined as an FICI>0.5-4.0, and antagonism was defined as an FICI>4.

[11] abbreviates: Staphylococcus aureus, amide compound alone, read-out: MBC.
[12] abbreviates: Staphylococcus aureus, amide compound alone, read-out: MIC.
The mark [13] stands for this setting: Staphylococcus aureus, fatty acid alone, read-out: MBC fatty acid.
The mark [14] stands for this setting: Staphylococcus aureus, fatty acid alone, read-out: MIC fatty acid.

In the case of `O=C(Nc1ccc2c(c1)OC(F)(F)O2)Nc1ccc(Cl)c(C(F)(F)F)c1` [PK150], the combination effect entry in assay [1] (MIC, +8 mg/L DHA) is reported as “| (Syn) (Synergy (Syn) was defined as an FICI≤0.5)”; in assay [2] (MIC, +8 mg/L DHA), “(Syn) (Synergy (Syn) was defined as an FICI≤0.5)”; in assay [3] (MIC, +8 mg/L DHA), “(Syn) (Synergy (Syn) was defined as an FICI≤0.5)”; in assay [4] (MIC, +8 mg/L DHA) it was “(Syn) (Synergy (Syn) was defined as an FICI≤0.5)”; in assay [5] (MIC, +8 mg/L DHA), “(Syn) (Synergy (Syn) was defined as an FICI≤0.5)”; in assay [6] (MIC, +8 mg/L DHA), “(Syn) (Synergy (Syn) was defined as an FICI≤0.5)”. Further, the combination effect result in assay [7] (MIC, +8 mg/L DHA) is on record as “(Syn) (Synergy (Syn) was defined as an FICI≤0.5)”; in assay [8] (MIC, +8 mg/L DHA) it was “(Syn) (Synergy (Syn) was defined as an FICI≤0.5)”; in assay [9] (MIC, +8 mg/L DHA), “| (Syn) (Synergy (Syn) was defined as an FICI≤0.5)”; in [10] (MIC, +8 mg/L DHA, MRSA USA300 (Table 4)) it was “(Syn) (Synergy (Syn) was defined as an FICI≤0.5)”. Besides, the minimal inhibitory concentration (MIC) (in general, the lowest concentration that inhibits growth of the organism) worked out at 0.061 ng/mL (≈ 0.155 nM) in assay [1] (+8 mg/L DHA); 62.5 ng/mL (≈ 158 nM) in assay [1] (agent alone); 0.035 ng/mL (≈ 0.0887 nM) in [2] (NCTC8325, +8 mg/L DHA); 62.5 ng/mL (≈ 158 nM) in assay [2] (NCTC8325, agent alone); 0.00012 µg/mL (≈ 0.304 nM) in assay [3] (+8 mg/L DHA); 0.125 µg/mL (≈ 317 nM) in assay [3] (agent alone). The minimal inhibitory concentration (MIC) in assay [4] (ATCC29213, +8 mg/L DHA) came out at 0.0039 µg/mL (≈ 9.88 nM); in [4] (ATCC29213, agent alone) it was 0.0625 µg/mL (≈ 158 nM); in assay [5] (+8 mg/L DHA), 0.00098 µg/mL (≈ 2.48 nM); in assay [5] (agent alone), 0.0625 µg/mL (≈ 158 nM); in [6] (+8 mg/L DHA), 0.00098 µg/mL (≈ 2.48 nM); in [6] (agent alone), 0.125 µg/mL (≈ 317 nM). Moreover, the MIC in assay [7] (+8 mg/L DHA) is 0.00098 µg/mL (≈ 2.48 nM); in assay [7] (agent alone) it was 0.0625 µg/mL (≈ 158 nM); in assay [8] (+8 mg/L DHA) it was 0.0156 µg/mL (≈ 39.5 nM); in [8] (agent alone) it was 0.0625 µg/mL (≈ 158 nM); in assay [9] (+8 mg/L DHA), 0.015 ng/mL (≈ 0.038 nM); in [9] (agent alone), 62.5 ng/mL (≈ 158 nM). Further, the MIC in [10] (+8 mg/L DHA) is 0.00049 µg/mL; in assay [10] (+8 mg/L DHA, MRSA USA300 (Table 4)), 0.00049 µg/mL; in assay [10] (setting [12]), 0.0625 µg/mL; in [10] (agent alone, MRSA USA300 (Table 4)), 0.0625 µg/mL. Besides, the figures for the MBC in assay [10] (+8 mg/L DHA) and in [10] (setting [11]) were 0.00098 µg/mL and 2 µg/mL, respectively. Moreover, the “synergy of the amide compound with DHA (in words)” value in [10] (MIC after adding DHA is less than ¼ of its original MIC, 8 mg/L DHA) is listed as “synergistic antibacterial activity with DHA”.

Take `O=C(Nc1ccc(Cl)c(C(F)(F)F)c1)C(CCCCl)C(=O)Nc1ccc(Cl)c(C(F)(F)F)c1` [SC5103]: the values for the MBC in [10] (+8 mg/L DHA) and in assay [10] (setting [11]) were 0.0078 µg/mL and 2 µg/mL, respectively. Further, the MIC in assay [10] (+8 mg/L DHA) is 0.0039 µg/mL; in [10] (setting [12]), 0.25 µg/mL.

In the case of `O=C(Nc1cc(Cl)cc(Cl)c1)C(F)(CCCl)C(=O)Nc1cc(Cl)cc(Cl)c1` [SC5104], the values for the MBC in [10] (+8 mg/L DHA) and in [10] (setting [11]) were 0.0078 µg/mL and 4 µg/mL, respectively. The MIC in assay [10] (+8 mg/L DHA) was 0.0078 µg/mL; in assay [10] (setting [12]) it was 0.5 µg/mL.

In the case of `O=C(Nc1ccc(Cl)c(C(F)(F)F)c1)C(F)(CCCl)C(=O)Nc1ccc(Cl)c(C(F)(F)F)c1` [SC5105], the MBC (commonly the smallest concentration meeting the test's criterion for killing) in [10] (+8 mg/L DHA) was 0.125 µg/mL; in [10] (setting [11]), over 64 µg/mL. The minimum inhibitory concentration (MIC) in [10] (+8 mg/L DHA) is 0.125 µg/mL; in [10] (setting [12]), over 64 µg/mL.

Take `O=C(CC(=O)Nc1ccc(Cl)c(C(F)(F)F)c1)Nc1ccc(Cl)c(C(F)(F)F)c1` [SC5106]: the figures for the MBC in [10] (+8 mg/L DHA) and in assay [10] (setting [11]) were 0.5 µg/mL and over 64 µg/mL, respectively. The MIC in [10] (+8 mg/L DHA) is 0.25 µg/mL; in [10] (setting [12]) it was over 64 µg/mL.

As to `O=C(Nc1ccc(Cl)c(C(F)(F)F)c1)C1(C(=O)Nc2ccc(Cl)c(C(F)(F)F)c2)CC1` [SC5107], in assay [10] (+8 mg/L DHA), the MBC turned out to be 0.125 µg/mL and the MIC was determined as 0.0625 µg/mL. Further, in assay [10] (amide compound alone), the MBC was over 64 µg/mL and the MIC is over 64 µg/mL.

Take `O=C(Nc1ccc(Cl)c(C(F)(F)F)c1)Nc1ccc(Cl)c(C(F)(F)F)c1` [SC5178]: the MBC is 0.00156 µg/mL in assay [10] (+8 mg/L DHA) and 2 µg/mL in assay [10] (setting [11]). Besides, the MIC in assay [10] (+8 mg/L DHA) was found to be 0.00012 µg/mL; in [10] (setting [12]), 0.25 µg/mL.

Turning to `CCCCC/C=C\C/C=C\C/C=C\C/C=C\CCCC(=O)O` [arachidonic acid], the MBC in assay [10] (setting [13]) was determined as 1020 µg/mL. In addition, the MIC in [10] (setting [14]) came out at 128 µg/mL.

Consider `CCCCCCCC/C=C/CCCCCCCC(=O)O` [elaidic acid], for which, in assay [10] (setting [13]), the MBC was over 1020 µg/mL. Moreover, in assay [10] (setting [14]), the MIC is over 1020 µg/mL. The “synergy of the fatty acid with SC5005 (in words)” value (“synergy of the fatty acid” below) in assay [10] is “did not exhibit synergy with SC5005”.

Regarding `CCCCCCCC/C=C\CCCCCCCCCCCC(=O)O` [erucic acid], in [10], the “bactericidal combination effect of the fatty acid with SC5005 (in words)” value is “exhibited a synergistic bactericidal effect with SC5005” and the “effect of the fatty acid on the MIC of SC5005 (in words)” value is recorded as “had no effect on the MIC of SC5005”. Moreover, the MBC in [10] (setting [13]) came to 1020 µg/mL. Further, in assay [10] (setting [14]), the MIC stood at 128 µg/mL.

On to `CCCCCCCC/C=C\CCCCCCCCCC(=O)O` [gondoic acid], for which, in [10], the “bactericidal combination effect of the fatty acid with SC5005 (in words)” value was “exhibited a synergistic bactericidal effect with SC5005” and the “effect of the fatty acid on the MIC of SC5005 (in words)” value was “had no effect on the MIC of SC5005”. In addition, the MBC in assay [10] (setting [13]) was over 1020 µg/mL. Moreover, the MIC in [10] (setting [14]) amounted to 512 µg/mL.

In the case of `CCCCC/C=C\C/C=C\CCCCCCCC(=O)O` [linoleic acid], the minimal bactericidal concentration (MBC) in assay [10] (setting [13]) was over 1020 µg/mL. Moreover, in [10] (setting [14]), the MIC came to 1020 µg/mL.

Turning to `CCCCCCCCCCCCCC(=O)O` [myristic acid], in assay [10] (setting [13]), the MBC was over 1020 µg/mL. Besides, the MIC in [10] (setting [14]) stood at 512 µg/mL. Besides, in [10], the “synergy of the fatty acid” value was “neither of nervonic acid (C24:1n9c) and myristic acid (C14:1n5c), which have 24 and 14 carbon atoms respectively, showed any synergistic activity with SC5005”.

Regarding `CCCCCCCC/C=C\CCCCCCCCCCCCCC(=O)O` [nervonic acid], the MBC in [10] (setting [13]) is over 1020 µg/mL. Further, the MIC in assay [10] (setting [14]) is 128 µg/mL. The “synergy of the fatty acid” value in [10] is “neither of nervonic acid (C24:1n9c) and myristic acid (C14:1n5c), which have 24 and 14 carbon atoms respectively, showed any synergistic activity with SC5005”.

In the case of `CCCCCCCC/C=C\CCCCCCCC(=O)O` [oleic acid], the MBC in assay [10] (setting [13]) is over 1020 µg/mL. In addition, the MIC in [10] (setting [14]) was 512 µg/mL.

For `CCCCCC/C=C\CCCCCCCC(=O)O` [palmitoleic acid], in [10] (setting [13]), the MBC was 512 µg/mL. In assay [10] (setting [14]), the MIC amounted to 64 µg/mL. Further, in assay [10], the “synergy of the fatty acid” value was “exhibited synergy”.

For the compound `CCCCCCCCCCCCCCCCCC(=O)O` [stearic acid], the MBC in [10] (setting [13]) is over 1020 µg/mL. Besides, in assay [10] (setting [14]), the MIC amounted to 512 µg/mL. Besides, the “synergy of the fatty acid” value in [10] is “failed to exhibit synergy”.

Turning to `CC/C=C\C/C=C\C/C=C\CCCCCCCC(=O)O` [α- linolenic acid, α-linolenic acid], the MBC in assay [10] (setting [13]) came out at 1020 µg/mL. The minimal inhibitory concentration (MIC) in assay [10] (setting [14]) was 256 µg/mL.
